This is an account of results in patent publication US20110046130A1, “TETRAHYDRONAPHTHYRIDINES AND AZA DERIVATIVES THEREOF AS HISTAMINE H3 RECEPTOR ANTAGONISTS” (Evotec AG, priority 2008, published 2011).

As a reminder, the pIC50 is the IC50 on a negative log10 scale, so that one unit is a factor of ten.

This assay concerns the target T1, human H3 receptors (Homo sapiens, UniProt Q9Y5N1).
T1 construct: host or cells: CHO-K1
Nature of the assay: cAMP quantification protocol for human H3 receptor testing. The note with it: inhibition of agonist-induced (100 nM histamine, 10 μM forskolin) decrease of intracellular cAMP; CHO-K1 cell line expressing human H3 receptors; read-out: Potency range (IC50 values). The assay is classed as cell-based. The procedure: CHO-K1 cell line expressing human H3 receptors were purchased from Euroscreen (Gosselies, Belgium, Cat. no.: ES-392-C)
Human H3 receptor-expressing cell-lines were grown in Ham's F12 [Sigma, Cat. no. N6658], supplemented with 10% FBS [Sigma, Cat. no. F9665], 400 μg/ml G418 [Sigma, Cat. no. N1876] and 250 μg/ml Zeocin [Invitrogen, Cat. no. 46-0509]) according to the protocol provided by Euroscreen.
cAMP Quantification Protocol for Human H3 Receptor Testing
The assay measures the ability of test compounds to inhibit Histamine receptor agonist-induced decrease of intracellular free cAMP (receptor is Gi coupled).
Specifically, a cAMP quantification assay system from DiscoveRx (cAMP XS+; Cat. no. 90-0075) was used.
For the cAMP assay, confluent cells were detached from the culture vessels with 1× trypsin-EDTA solution (Sigma), and seeded into 384-well Costar plates (white, clear bottom, Cat. no. 3707) at a density of 10,000 cells per well. Cells were seeded in a volume of 50 μl in medium without antibiotics and incubated overnight in a humidified atmosphere with 5% CO2 at 37° C. The cAMP assay was performed according to the protocol provided by DiscoveRx.
The cell culture medium was removed and the cells washed once with PBS (50 μl per well). The plates were emptied by inversion and 7.5 μl/well of compound in PBS (containing 1 mM IBMX and 0.03% BSA) were added and incubated for 30 min at 37° C.
Subsequent 7.5 μl/well specific agonist solution was added and the plates for another 30 min incubated at 37° C.
The following agonist solution is used:
100 nM histamine, 10 μM forskolin in PBS (containing 1 mM IBMX and 0.03% BSA)
After the incubation with the agonist, 5 μl/well cAMP XS antibody solution was added followed by 20 μl/well Gal/EII/Lysis(1:5:19)+ED (1:1). The plates were incubated for one hour at room temperature and afterwards 20 μl/well EA reagent was added. The luminescence was developed for approximately three hours at room temperature and the plates were read out using a ‘BMG Novostar’ plate reader.
Test compounds were assayed at 8 concentrations in triplicate. Serial 10-fold dilutions in 100% DMSO were made at a 100-times higher concentration than the final concentration and then diluted with a 2 step protocol in assay buffer to reach the required assay concentrations and 1% DMSO.

pIC50: −log10 of the molar value.

T1 sequence (Q9Y5N1 whole entry): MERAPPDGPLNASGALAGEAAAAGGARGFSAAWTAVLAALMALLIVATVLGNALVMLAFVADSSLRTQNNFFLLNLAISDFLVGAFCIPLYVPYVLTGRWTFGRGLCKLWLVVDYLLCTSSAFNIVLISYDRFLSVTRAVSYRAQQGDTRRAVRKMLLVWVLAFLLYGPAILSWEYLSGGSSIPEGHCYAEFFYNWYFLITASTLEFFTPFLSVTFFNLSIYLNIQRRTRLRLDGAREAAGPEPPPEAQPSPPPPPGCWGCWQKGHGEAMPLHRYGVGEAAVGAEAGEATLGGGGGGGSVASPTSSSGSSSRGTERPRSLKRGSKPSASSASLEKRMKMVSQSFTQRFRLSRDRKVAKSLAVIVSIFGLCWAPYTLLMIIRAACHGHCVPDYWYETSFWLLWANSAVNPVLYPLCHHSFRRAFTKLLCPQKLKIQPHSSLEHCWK

As to `O=C1CCCC2c3ccc(OC4CCN(CC5CC5)CC4)nc3CCN12` (stereo not shown) [Example 33, 3-{[1-(cyclopropylmethyl)piperidin-4-yl]oxy}-5,6,9,10,11,11a-hexahydro-8H-pyrido[2,1-f][1,6]naphthyridin-8-one], the pIC50 was more than 7.00.
